Laboratory results as given in US20040259926A1, “3-Aryloxy and 3-heteroaryloxy substituted benzo[b]thiophenes as therapeutic agents” (priority 2003, published 2004).
Where a name gives a salt, the structure may show the parent alone.

Key:
[1] = target: T1, PI3Kγ (recombinant p101/p110γ protein) (Homo sapiens, UniProt P48736); assay: PI3Kγ In Vitro Kinase Assay; format: biochemical; conditions: purified recombinant p101/p110γ with G protein β1/γ2 subunits; 20 μM ATP, [γ-32P-ATP]; 25 μM PIP2 lipid micelles; 20 minutes at room temperature
T1 construct: HA; made in house; host or cells: Spodoptera frugiperda (Sf9) cells, baculovirus co-infection
T1 sequence (P48736 whole entry, species assumed): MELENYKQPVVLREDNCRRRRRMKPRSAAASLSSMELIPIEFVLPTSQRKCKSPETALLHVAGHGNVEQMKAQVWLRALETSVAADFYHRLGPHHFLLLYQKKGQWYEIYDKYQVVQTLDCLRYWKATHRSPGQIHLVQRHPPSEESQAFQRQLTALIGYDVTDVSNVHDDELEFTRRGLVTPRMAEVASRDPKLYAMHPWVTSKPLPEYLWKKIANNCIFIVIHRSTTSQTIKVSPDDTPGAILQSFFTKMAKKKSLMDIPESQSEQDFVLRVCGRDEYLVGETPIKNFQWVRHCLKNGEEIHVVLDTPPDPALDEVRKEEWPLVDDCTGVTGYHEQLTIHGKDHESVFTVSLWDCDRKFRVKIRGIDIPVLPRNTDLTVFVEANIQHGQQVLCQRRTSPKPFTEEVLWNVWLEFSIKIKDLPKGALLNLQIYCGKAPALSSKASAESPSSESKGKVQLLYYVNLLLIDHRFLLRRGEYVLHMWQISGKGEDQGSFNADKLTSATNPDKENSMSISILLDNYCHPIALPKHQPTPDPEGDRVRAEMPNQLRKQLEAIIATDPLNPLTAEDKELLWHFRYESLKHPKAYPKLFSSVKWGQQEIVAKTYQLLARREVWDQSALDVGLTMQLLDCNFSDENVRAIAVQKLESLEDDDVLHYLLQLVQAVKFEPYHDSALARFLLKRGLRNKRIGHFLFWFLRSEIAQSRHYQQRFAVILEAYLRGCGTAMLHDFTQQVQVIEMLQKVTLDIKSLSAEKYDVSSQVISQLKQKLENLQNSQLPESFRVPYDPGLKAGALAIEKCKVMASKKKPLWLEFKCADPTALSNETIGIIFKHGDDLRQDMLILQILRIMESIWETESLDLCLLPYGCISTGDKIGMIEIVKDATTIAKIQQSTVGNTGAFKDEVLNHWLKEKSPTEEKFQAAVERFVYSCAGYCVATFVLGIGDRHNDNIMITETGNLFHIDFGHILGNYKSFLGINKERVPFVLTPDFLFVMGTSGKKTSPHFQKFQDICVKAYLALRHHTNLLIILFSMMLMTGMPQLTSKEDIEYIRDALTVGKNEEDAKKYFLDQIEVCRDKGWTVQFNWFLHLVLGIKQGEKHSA
T1 sequence (Q8WYR1 whole entry partner, species assumed): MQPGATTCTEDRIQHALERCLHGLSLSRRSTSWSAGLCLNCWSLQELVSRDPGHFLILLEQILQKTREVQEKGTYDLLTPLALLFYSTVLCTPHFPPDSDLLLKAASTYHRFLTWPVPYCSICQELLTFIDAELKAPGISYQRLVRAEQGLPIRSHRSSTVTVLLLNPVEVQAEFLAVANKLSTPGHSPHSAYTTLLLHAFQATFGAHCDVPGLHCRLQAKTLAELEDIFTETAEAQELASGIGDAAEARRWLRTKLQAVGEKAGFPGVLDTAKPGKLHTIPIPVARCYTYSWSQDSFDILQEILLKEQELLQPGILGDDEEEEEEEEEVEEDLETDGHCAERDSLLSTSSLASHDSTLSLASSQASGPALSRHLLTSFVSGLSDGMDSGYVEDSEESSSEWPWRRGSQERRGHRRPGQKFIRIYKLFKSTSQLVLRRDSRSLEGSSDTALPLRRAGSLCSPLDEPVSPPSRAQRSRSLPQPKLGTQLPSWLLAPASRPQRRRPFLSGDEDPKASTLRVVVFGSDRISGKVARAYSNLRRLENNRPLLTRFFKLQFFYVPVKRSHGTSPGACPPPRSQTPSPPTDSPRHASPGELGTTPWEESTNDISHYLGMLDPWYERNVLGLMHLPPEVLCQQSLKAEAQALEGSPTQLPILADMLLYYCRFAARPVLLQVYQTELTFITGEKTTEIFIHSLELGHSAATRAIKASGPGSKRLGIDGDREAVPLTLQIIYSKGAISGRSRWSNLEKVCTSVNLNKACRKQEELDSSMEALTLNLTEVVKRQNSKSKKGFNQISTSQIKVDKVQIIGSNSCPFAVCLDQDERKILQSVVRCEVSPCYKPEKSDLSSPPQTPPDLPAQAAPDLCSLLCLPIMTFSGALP
Outline: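 Baculovirus/Sf9-expressed p101/p110γ (~2.7 nM) with Gβ1/γ2 (~57.7 nM) in HEPES/NaCl/EGTA/DTT buffer; 20 μM ATP plus [γ-32P]ATP, micelles of 25 μM PIP2, 300 μM PE, 10 mM MgCl2. Reactions ran 20 minutes at room temperature; radiolabelled PIP3 captured on glass-fibre filters and counted for IC50.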

Row | SMILES | melting point | IC50 [1]
1 | COc1cc2sc(C(=O)Nc3nnn[nH]3)c(OCc3ccc4ccccc4c3)c2cc1OC [Example C.9, 5,6-Dimethoxy-3-(naphthalen-2-ylmethoxy)-benzo[b]thiophene-2-carboxylic acid (1H-tetrazol-5-yl)-amide] | 204 °C | –
2 | COc1cc2sc(C(=O)Nc3nnn[nH]3)c(OCCc3ccc(N(C)C)cc3)c2cc1OC [Example C.27, 3-[2-(4-Dimethylamino-phenyl)-ethoxy]-5,6-dimethoxy-benzo[b]thiophene-2-carboxylic acid (1H-tetrazol-5-yl)-amide] | – | 185 nM
3 | COc1cc2sc(C(=O)Nc3nnn[nH]3)c(OCc3ccc4c(c3)CCCC4)c2cc1OC [Example C.28, 5,6-Dimethoxy-3-(5,6,7,8-tetrahydro-naphthalen-2-ylmethoxy)-benzo[b]thiophene-2-carboxylic acid (1H-tetrazol-5-yl)-amide] | – | 185 nM
4 | COc1cc2sc(C(=O)Nc3nnn[nH]3)c(O[C@@H](C)Cc3ccccc3)c2cc1OC [Example C.29, 5,6-Dimethoxy-3-((S)-1-methyl-2-phenyl-ethoxy)-benzo[b]thiophene-2-carboxylic acid (1H-tetrazol-5-yl)-amide] | – | 145 nM
5 | COc1cc2sc(C(=O)Nc3nnn[nH]3)c(OCc3ccc(C4CCCCC4)cc3)c2cc1OC [Example C.30, 3-(4-Cyclohexyl-benzyloxy)-5,6-dimethoxy-benzo[b]thiophene-2-carboxylic acid (1H-tetrazol-5-yl)-amide] | – | 134 nM
6 | COc1cc2sc(C(=O)Nc3nnn[nH]3)c(OCc3cc(C(C)(C)C)cc(C(C)(C)C)c3)c2cc1OC [Example C.31, 3-(3,5-Di-tert-butyl-benzyloxy)-5,6-dimethoxy-benzo[b]thiophene-2-carboxylic acid (1H-tetrazol-5-yl)-amide] | – | 123 nM
7 | COc1cc2sc(C(=O)Nc3nnn[nH]3)c(OCCc3cc(C)cc(C)c3)c2cc1OC [Example C.32, 3-[2-(3,5-Dimethyl-phenyl)-ethoxy]-5,6-dimethoxy-benzo[b]thiophene-2-carboxylic acid (1H-tetrazol-5-yl)-amide] | – | 117 nM
8 | COc1cc2sc(C(=O)Nc3nnn[nH]3)c(OCCCc3ccccc3)c2cc1OC [Example C.33, 5,6-Dimethoxy-3-(3-phenyl-propoxy)-benzo[b]thiophene-2-carboxylic acid (1H-tetrazol-5-yl)-amide] | – | 115 nM
9 | COc1cc2sc(C(=O)Nc3nnn[nH]3)c(OCC(C)(C)c3ccccc3)c2cc1OC [Example C.34, 5,6-Dimethoxy-3-(2-methyl-2-phenyl-propoxy)-benzo[b]thiophene-2-carboxylic acid (1H-tetrazol-5-yl)-amide] | – | 84 nM
10 | COc1cc2sc(C(=O)Nc3nnn[nH]3)c(OC[C@H](C)c3ccccc3)c2cc1OC [Example C.35, 5,6-Dimethoxy-3-((R)-2-phenyl-propoxy)-benzo[b]thiophene-2-carboxylic acid (1H-tetrazol-5-yl)-amide] | – | 42 nM
11 | COc1cc2sc(C(=O)Nc3nn[nH]n3)c(Oc3ccccc3)c2cc1C [Example D.1, 6-Methoxy-5-methyl-3-phenoxy-benzo[b]thiophene-2-carboxylic acid (2H-tetrazol-5-yl)-amide] | – | 41 nM
12 | COc1cc2sc(C(=O)Nc3nn[nH]n3)c(Oc3cccc(C=O)c3)c2cc1C [Example D.2, 3-(3-Formyl-phenoxy)-6-methoxy-5-methyl-benzo[b]thiophene-2-carboxylic acid (2H-tetrazol-5-yl)-amide] | – | 150 nM
13 | COc1cc2sc(C(=O)Nc3nn[nH]n3)c(Oc3cccc(C#N)c3)c2cc1C [Example D.3, 3-(3-Cyano-phenoxy)-6-methoxy-5-methyl-benzo[b]thiophene-2-carboxylic acid (2H-tetrazol-5-yl)-amide] | – | 275 nM

The remaining lines, values ahead:

Row | melting point | IC50 [1] | SMILES
14 | – | 235 nM | CCOc1ccc(Oc2c(C(=O)Nc3nn[nH]n3)sc3cc(OC)c(C)cc23)cc1 [Example D.5, 3-(4-Ethoxy-phenoxy)-6-methoxy-5-methyl-benzo[b]thiophene-2-carboxylic acid (2H-tetrazol-5-yl)-amide]
15 | – | 890 nM | COc1cc2sc(C(=O)Nc3nn[nH]n3)c(Oc3ccc(C(C)(C)C)cc3)c2cc1C [Example D.6, 3-(4-tert-Butyl-phenoxy)-6-methoxy-5-methyl-benzo[b]thiophene-2-carboxylic acid (2H-tetrazol-5-yl)-amide]
16 | – | 230 nM | COc1cc2sc(C(=O)Nc3nn[nH]n3)c(Oc3cccc(C(C)(C)C)c3)c2cc1C [Example D.7, 3-(3-tert-Butyl-phenoxy)-6-methoxy-5-methyl-benzo[b]thiophene-2-carboxylic acid (2H-tetrazol-5-yl)-amide]
17 | – | 2610 nM | COc1cc2sc(C(=O)Nc3nnn[nH]3)c(Oc3ccc(CCCSc4ccc(Cl)cc4)cc3)c2cc1C [Example D.8, 3-{4-[3-(4-Chlorophenenyl)sulfanylpropyl]phenoxy}-6-methoxy-5-methylbenzo[b]thiophene-2-caboxylic acid(1H-tetrazolyl)amide trifluroacetic acid salt]
18 | – | 28 nM | Cc1cc2sc(C(=O)Nc3nn[nH]n3)c(Oc3ccc(C4CCCCC4)cc3)c2cc1O [Example H.1, 3-(4-Cyclohexyl-phenoxy)-5-hydroxy-6-methyl-benzo[b]thiophene-2-carboxylic acid (2H-tetrazol-5-yl)-amide]
19 | – | 230 nM | Cc1cc2sc(C(=O)Nc3nn[nH]n3)c(Oc3ccc(C4CCCCC4)cc3)c2cc1OC(F)F [Example H.2, 3-(4-Cyclohexyl-phenoxy)-5-difluoromethoxy-6-methyl-benzo[b]thiophene-2-carboxylic acid (2H-tetrazol-5-yl)-amide]
20 | – | 1930 nM | COc1cc2c(Oc3ccc(C4CCCCC4)cc3)c(C(=O)Nc3nnn(C)n3)sc2cc1C [Example K.1, 3-(4-Cyclohexyl-phenoxy)-5-methoxy-6-methyl-benzo[b]thiophene-2-carboxylic acid (2-methyl-2H-tetrazol-5-yl)-amide]
21 | 197 to 198 °C | 1610 nM | COc1cc2c(Oc3ccc(C4CCCCC4)cc3)c(C(=O)N(C)c3nn[nH]n3)sc2cc1C [Example K.2, 3-(4-Cyclohexyl-phenoxy)-5-methoxy-6-methyl-benzo[b]thiophene-2-carboxylic acid methyl-(2H-tetrazol-5-yl)-amide]
22 | – | 115 nM | CCOc1cc2c(Oc3ccc(C4CCCCC4)cc3)c(C(=O)Nc3nnn[nH]3)sc2cc1C [Example L.1, 3-(4-cyclohexyl-phenoxy)-5-ethoxy-6-methyl-benzo[b]thiophene-2-carboxylic acid (1H-tetrazol-5-yl)-amide]
